From publication PMC3792051, “Polyenylpyrrole Derivatives Inhibit NLRP3 Inflammasome Activation and Inflammatory Mediator Expression by Reducing Reactive Oxygen Species Production and Mitogen-Activated Protein Kinase Activation” (PLoS ONE, 2013)

Columns and labels:
RAW 264.7 cells = experiment: AlamarBlue assay for cell viability (cytotoxicity); settings: read-out: IC50 (cytotoxicity), RAW 264.7 macrophages, 24 h treatment, 6.25-100 µM tested
[1] = system: LPS-activated RAW 264.7 macrophages; experiment: NO production inhibitory assay (Griess reaction); type: cell-based, murine
Procedure: RAW 264.7 cells seeded in 24-well plates at a density of 5 × 10^5 cells/ml (1 ml) were incubated for 24 h with or without LPS (1 µg/ml) in the absence or presence of the test samples, then NO production was measured indirectly by analysis of nitrite levels using the Griess reaction.
To investigate the inhibitory effect of compounds 1h, 1i, and 1n on the LPS-induced inflammatory response, NO levels in the supernatants of RAW 264.7 macrophages incubated with DMSO (vehicle) or compound 1h, 1i, or 1n for 30 min before, and during, incubation for 24 h with LPS (1 µg/ml) were measured by the Griess reaction. […] We next investigated their effect on the expression of iNOS, the NO producing enzyme, using Western blots.
Figure 2 Effect of polyenylpyrrole derivatives on the expression of inflammatory mediators in LPS-stimulated RAW 264.7 macrophages. In (A) and (C), the cells (5 × 10^5/ml; 1 ml) were incubated for 30 min with 2.5-40 µM compound 1h, 1i, or 1n or DMSO (vehicle), then LPS (1 µg/ml) was added and incubation continued for 24 h, then NO (A) or IL-6 or TNF-α (C) in the culture medium was assayed by the Griess reaction or ELISA, respectively. In (B), cells (5 × 10^5/ml; 1 ml) were pretreated for 30 min with 2.5-40 µM compound 1h or DMSO, then LPS (1 µg/ml) was added and incubation continued for 24 h, then expression of iNOS and COX-2 was measured by Western blotting. The fold increase is the intensity of the band of interest divided by that of the actin band normalized to the corresponding value for the 0 LPS/0 inhibitor control.

[2] = system: RAW-Blue cells (RAW 264.7 with NF-κB reporter gene); experiment: NF-κB reporter assay (SEAP, QUANTI-Blue); type: cell-based, murine; settings: 2.5-40 µM 30 min, LPS 1 µg/ml 24 h
Procedure: RAW-Blue™ cells, RAW 264.7 macrophages stably expressing the gene for secreted embryonic alkaline phosphatase (SEAP) inducible by NF-κB, were seeded in 60 mm dishes at a density of 5 × 10^5 cells/ml (1 ml) and grown overnight in a 5% CO2 incubator at 37 °C. They were then pretreated with vehicle or compound 1h for 30 min, then LPS (1 µg/ml) was added and incubation continued for 24 h. The medium was then harvested and 20 µl aliquots mixed with 200 µl of QUANTI-Blue™ medium (InvivoGen) in 96-well plates and incubated at 37 °C for 15 min, then SEAP activity was assessed by measuring the optical density at 655 nm using an ELISA reader.
(§1) Following LPS stimulation, IκB in the complex is phosphorylated by IκB kinase (IKK), ubiquitinated, and rapidly degraded in proteasomes, thus releasing NF-κB [30].
Figure 6 Effect of compound 1h on NF-κB activation in LPS-activated macrophages. (A) RAW 264.7 macrophages or (B) J774A.1 macrophages (both 5 × 10^5/ml; 1 ml) were incubated for 30 min with 10-40 µM compound 1h or DMSO, then LPS (1 µg/ml) was added and incubation continued for 20 min, then levels of phosphorylated and total IKK-α and IκB-α were measured by Western blotting. (C) RAW 264.7 macrophages or (D) J774A.1 macrophages (both 5 × 10^5/ml; 1 ml) were treated as in A and B, then nuclear translocation of NF-κB was analyzed by ELISA. […]

[3] = system: LPS-activated J774A.1 macrophages; experiment: NF-κB signaling (IKK-α/IκB-α Western blot, p65 nuclear translocation ELISA); type: cell-based, murine; settings: J774A.1, 10-40 µM 30 min, LPS 20 min
Procedure: (§2) Cells were washed twice with ice-cold phosphate-buffered saline (PBS) and lysed on ice for 5 min with lysis buffer (20 mM Tris-HCl, pH 7.5, 150 mM NaCl, 1 mM Na 2EDTA, 1 mM EGTA, 1% Triton X-100, 2.5 mM sodium pyrophosphate, 1 mM beta-glycerophosphate, 1 mM Na 3VO4, 1 µg/ml of leupeptin, 1 mM PMSF, protease inhibitor cocktail). The lysate was then centrifuged at 12,000 x g at 4 °C for 10 min and the pellet discarded. Proteins in the supernatant were separated by SDS-PAGE and electrotransferred to a PVDF membrane (EMD Millipore Corporation), which was then blocked by incubation for 1 h at room temperature in blocking buffer [(5% nonfat milk in PBS containing 0.1% Tween 20 (PBST)], then incubated for 2 h at room temperature with the primary antibody diluted in blocking buffer. After three washes in PBST, the membrane was incubated for 1 h at room temperature with an appropriate HRP-conjugated secondary antibody diluted in blocking buffer and developed using an enhanced chemiluminescence Western blot detection system (EMD Millipore Corporation).
(§3) Nuclear proteins were extracted from RAW 264.7 and J774A.1 cells using a Nuclear Extract Kit (Active Motif) according to the manufacturer’s instructions and nuclear NF-κB p65 activation quantified using an ELISA-based TransAM NF-κB kit (Active Motif, Tokyo, Japan) according to the manufacturer’s protocol by reading the absorbance at 450 nm with a microplate absorbance reader (Bio-Rad Laboratories, Inc) and a reference wavelength of 655 nm.
as §1
(§4) Figure 6 Effect of compound 1h on NF-κB activation in LPS-activated macrophages. (A) RAW 264.7 macrophages or (B) J774A.1 macrophages (both 5 × 10^5/ml; 1 ml) were incubated for 30 min with 10-40 µM compound 1h or DMSO, then LPS (1 µg/ml) was added and incubation continued for 20 min, then levels of phosphorylated and total IKK-α and IκB-α were measured by Western blotting. (C) RAW 264.7 macrophages or (D) J774A.1 macrophages (both 5 × 10^5/ml; 1 ml) were treated as in A and B, then nuclear translocation of NF-κB was analyzed by ELISA. (E) RAW-Blue^TM cells (5 × 10^5/ml; 1 ml) were incubated for 30 min with 2.5-40 µM compound 1h or DMSO, then LPS (1 µg/ml) was added and incubation continued for 24 h, then SEAP activity was measured by the QUANTI-Blue^TM assay and expressed as a percentage of that in the absence of compound 1h. In (A) and (B), the results are representative of those obtained in three different experiments. In (C-E), the data are expressed as the mean ± SD for three separate experiments. *, **, and *** indicate a significant difference at the level of p < 0.05, p < 0.01, and p < 0.001, respectively, compared to the DMSO/LPS group.

[4] = system: LPS-activated RAW 264.7 macrophages; experiment: as above; type: cell-based, murine; settings: RAW 264.7, 10-40 µM 30 min, LPS 20 min
Procedure: as §2, §3, §1, §4

`O=c1cc(O)cc(/C=C/C=C/C=C/C=C/c2[nH]ccc2Cl)o1` [compound 1h] was tested, and the IC50 (RAW 264.7 cells) was greater than 100 µM, the “NO production by LPS-activated cells” value ([1]; 2.5-40 µM, 30 min before and during LPS 1 µg/ml 24 h) was “decreased NO production by LPS-activated cells in a dose-dependent manner” and the “ED50 (inhibition of LPS-induced NO production)” value ([1]; RAW 264.7 macrophages, LPS 1 µg/ml, 24 h, Griess reaction) was 15 ± 2 µM. The “NO levels produced by non-activated cells” value ([1]; compound alone, no LPS (data not shown)) was “did not alter NO levels produced by non-activated cells”, the “NF-κB transcriptional activity (SEAP reporter)” value [2] was “reduced” and the IκB-α degradation [3] was “had a inhibitory effect on IκB-α degradation”. The NF-κB nuclear translocation [3] was “inhibited NF-κB nuclear translocation”, the “Phosphorylation of IKK-α and IκB-α” value [3] was “inhibited phosphorylation of IKK-α and IκB-α in a dose-dependent manner” and the IκB-α degradation [4] was “had a inhibitory effect on IκB-α degradation”. For the same compound, the NF-κB nuclear translocation [4] was “inhibited NF-κB nuclear translocation” and the “Phosphorylation of IKK-α and IκB-α” value [4] was “inhibited phosphorylation of IKK-α and IκB-α in a dose-dependent manner”.
